The results in this text go back to US8541418B2, “Inhibitors of polo-like kinase” (Elan Pharmaceutical, Inc., priority 2009, dated 2013).

Each structure is given as a SMILES string. pIC50: −log10 of the molar value. Read-outs that look alike come from different tables or passages of the source. A value given as a limit tells only on which side of the number the result lay.

Type in all cases: biochemical
One assay has as its target PLK1 (Homo sapiens, UniProt P53350). Nature of the assay: PLK TR-FRET peptide assay, PLK1.
A further assay addresses PLK2 (Homo sapiens, UniProt Q9NYY3). Nature of the assay: PLK TR-FRET peptide assay, PLK2. As to conditions: for pIC50: PLK TR-FRET peptide assay, read-out: Plk2 IC50; for relative PLK2 activity of the enantiomers: compared with the opposite enantiomer.
Another assay addresses PLK3 (Homo sapiens, UniProt Q9H4B4). Nature of the assay: PLK TR-FRET peptide assay, PLK3.
The mark [1] stands for this setting: GST-PLK3, 15 min reaction, read-out: Plk3 IC50.

Sequence of PLK2 (Q9NYY3 whole entry): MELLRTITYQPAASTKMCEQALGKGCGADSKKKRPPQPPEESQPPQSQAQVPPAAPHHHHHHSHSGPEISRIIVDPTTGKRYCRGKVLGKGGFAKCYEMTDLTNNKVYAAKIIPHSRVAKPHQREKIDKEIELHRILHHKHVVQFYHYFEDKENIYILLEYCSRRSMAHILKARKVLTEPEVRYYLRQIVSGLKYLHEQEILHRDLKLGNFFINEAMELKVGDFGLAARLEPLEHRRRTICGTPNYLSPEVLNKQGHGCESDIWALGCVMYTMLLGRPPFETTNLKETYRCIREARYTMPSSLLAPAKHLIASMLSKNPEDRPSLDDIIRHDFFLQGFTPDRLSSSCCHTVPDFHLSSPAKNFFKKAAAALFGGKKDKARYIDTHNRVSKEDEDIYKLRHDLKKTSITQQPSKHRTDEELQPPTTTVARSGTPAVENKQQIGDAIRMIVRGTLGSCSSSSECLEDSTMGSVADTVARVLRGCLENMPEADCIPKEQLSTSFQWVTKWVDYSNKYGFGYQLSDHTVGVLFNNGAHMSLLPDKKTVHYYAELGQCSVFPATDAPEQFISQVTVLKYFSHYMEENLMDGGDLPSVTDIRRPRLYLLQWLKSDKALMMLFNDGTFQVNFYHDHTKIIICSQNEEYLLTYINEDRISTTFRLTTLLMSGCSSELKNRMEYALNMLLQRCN
Sequence of PLK3 (Q9H4B4 whole entry): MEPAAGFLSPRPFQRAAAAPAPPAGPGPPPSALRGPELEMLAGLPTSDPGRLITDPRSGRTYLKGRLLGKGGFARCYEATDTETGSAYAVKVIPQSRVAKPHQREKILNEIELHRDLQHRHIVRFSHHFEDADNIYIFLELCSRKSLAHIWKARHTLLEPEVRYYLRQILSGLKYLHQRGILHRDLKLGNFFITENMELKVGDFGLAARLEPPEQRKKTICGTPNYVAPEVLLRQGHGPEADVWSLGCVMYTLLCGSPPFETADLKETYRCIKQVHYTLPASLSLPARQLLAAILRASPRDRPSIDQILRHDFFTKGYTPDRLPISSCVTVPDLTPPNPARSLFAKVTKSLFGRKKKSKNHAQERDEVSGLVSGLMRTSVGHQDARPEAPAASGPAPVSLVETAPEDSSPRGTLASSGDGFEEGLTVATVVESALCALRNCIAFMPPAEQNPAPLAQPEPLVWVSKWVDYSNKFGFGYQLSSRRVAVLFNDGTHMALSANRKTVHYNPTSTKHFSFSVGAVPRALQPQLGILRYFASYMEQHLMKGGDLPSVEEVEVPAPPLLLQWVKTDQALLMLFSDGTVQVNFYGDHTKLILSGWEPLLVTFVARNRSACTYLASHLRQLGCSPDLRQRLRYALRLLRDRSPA
Sequence of PLK1 (P53350 whole entry): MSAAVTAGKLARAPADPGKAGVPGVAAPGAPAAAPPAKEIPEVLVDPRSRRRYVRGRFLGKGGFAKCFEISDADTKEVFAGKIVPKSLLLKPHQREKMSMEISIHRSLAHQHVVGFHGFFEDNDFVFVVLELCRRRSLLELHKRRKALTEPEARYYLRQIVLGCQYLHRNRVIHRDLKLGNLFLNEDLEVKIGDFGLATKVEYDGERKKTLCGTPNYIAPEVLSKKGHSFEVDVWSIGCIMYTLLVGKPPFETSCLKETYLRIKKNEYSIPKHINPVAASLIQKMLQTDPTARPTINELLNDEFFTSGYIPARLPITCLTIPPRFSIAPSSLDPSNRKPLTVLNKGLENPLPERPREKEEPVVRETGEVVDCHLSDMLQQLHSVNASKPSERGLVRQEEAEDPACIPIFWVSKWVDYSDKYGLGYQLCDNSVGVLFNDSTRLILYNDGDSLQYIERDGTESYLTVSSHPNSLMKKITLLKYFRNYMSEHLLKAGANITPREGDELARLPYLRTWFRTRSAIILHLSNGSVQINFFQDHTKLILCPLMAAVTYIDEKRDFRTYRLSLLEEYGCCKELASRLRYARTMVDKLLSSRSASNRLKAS

As to `CC[C@@H]1C(=O)N(C)c2cnc(-n3ccnc3-c3cc(F)cc(C(F)(F)F)c3)nc2N1C1CCC1` [Example 174, (R)-8-cyclobutyl-7-ethyl-2-(2-(3-fluoro-5-(trifluoromethyl)phenyl)-1H-imidazol-1-yl)-5-methyl-7,8-dihydropteridin-6(5H)-one], the pIC50 was 5.00 to 6.00 on PLK1 (GST-PLK1, 60 min reaction); above 6.00 at PLK2 (GST-PLK2, 60 min reaction); 4.30 to 5.00 at PLK3 (setting [1]).
Regarding `[2H]C([2H])([2H])N1C(=O)C(C([2H])([2H])C([2H])([2H])[2H])N(C([2H])(C([2H])([2H])[2H])C([2H])([2H])[2H])c2nc(-n3ccnc3-c3ccc(F)cc3)ncc21` (racemic) [Example 162, 7-perdeuteroethyl-2-(2-(4-fluorophenyl)-1H-imidazol-1-yl)-8-perdeuteroisopropyl-5-trideuteromethyl-7,8-dihydropteridin-6(5H)-one], the pIC50 on PLK1 (GST-PLK1, 60 min reaction) was 5.00 to 6.00; on PLK2 (GST-PLK2, 60 min reaction), above 6.00; on PLK3 (setting [1]) it was 5.00 to 6.00.
For `CC[C@@]12CCC(=O)N1c1nc(-n3ccnc3-c3ccccc3)ncc1N(C)C2=O` [Example 258, (S)-6a-ethyl-5-methyl-2-(2-phenyl-1H-imidazol-1-yl)-7,8-dihydropyrrolo[2,1-h]pteridine-6,9(5H,6aH)-dione], the pIC50 was below 4.30 against PLK1 (GST-PLK1, 60 min reaction); 4.30 to 5.00 at PLK2 (GST-PLK2, 60 min reaction); below 4.30 on PLK3 (setting [1]).
For the compound `CC[C@@]12CCCCN1c1nc(-n3ccnc3-c3ccc(F)cc3F)ncc1N(C)C2=O` [Example 269, (S)-2-(2-(2,4-difluorophenyl)-1H-imidazol-1-yl)-6a-ethyl-5-methyl-7,8,9,10-tetrahydro-5H-pyrido[2,1-h]pteridin-6(6aH)-one], the pIC50 against PLK1 (GST-PLK1, 60 min reaction) is 4.30 to 5.00; on PLK2 (GST-PLK2, 60 min reaction), above 6.00; on PLK3 (setting [1]), 4.30 to 5.00. Moreover, at PLK2, the “relative PLK2 activity of the enantiomers” value (from here on “relative PLK2 activity”) is on record as “more active compound”.
Regarding `CC[C@@H]1C(=O)N(C)c2cnc(-c3cn[nH]c3-c3nccs3)nc2N1C(C)C1CC1` (stereo partly drawn) [Example 357, (7R)-8-(1-cyclopropylethyl)-7-ethyl-5-methyl-2-(5-(thiazol-2-yl)-1H-pyrazol-4-yl)-7,8-dihydropteridin-6(5H)-one], the pIC50 against PLK1 (GST-PLK1, 60 min reaction) is above 6.00; on PLK2 (GST-PLK2, 60 min reaction) it was above 6.00; at PLK3 (setting [1]) it was 5.00 to 6.00.
Take `[2H]C([2H])([2H])N1C(=O)[C@@H](C([2H])([2H])C([2H])([2H])[2H])N(C([2H])(C([2H])([2H])[2H])C([2H])([2H])[2H])c2nc(-n3ccnc3-c3ccc(F)cc3)ncc21` [Example 200, (R)-7-perdeuteroethyl-2-(2-(4-fluorophenyl)-1H-imidazol-1-yl)-8-perdeuteroisopropyl-5-trideuteromethyl-7,8-dihydropteridin-6(5H)-one]: the pIC50 on PLK1 (GST-PLK1, 60 min reaction) was 5.00 to 6.00; at PLK2 (GST-PLK2, 60 min reaction), above 6.00; at PLK3 (setting [1]), 5.00 to 6.00. Besides, the “relative PLK2 activity” value at PLK2 is on record as “more active compound”.
With `CC[C@@]12CCCN1c1nc(-n3ccnc3-c3cccc(OC(F)(F)F)c3)ncc1N(C)C2=O` [Example 251, (S)-6a-ethyl-5-methyl-2-(2-(3-(trifluoromethoxy)phenyl)-1H-imidazol-1-yl)-6a,7,8,9-tetrahydropyrrolo[2,1-h]pteridin-6(5H)-one], the pIC50 was 4.30 to 5.00 on PLK1 (GST-PLK1, 60 min reaction); above 6.00 on PLK2 (GST-PLK2, 60 min reaction); below 4.30 at PLK3 (setting [1]).
On to `CC[C@@H]1C(=O)N(C)c2cnc(-n3cnc(C(=O)N(C)C)c3)nc2N1C1CCCC1` [Example 384, (R)-1-(8-cyclopentyl-7-ethyl-5-methyl-6-oxo-5,6,7,8-tetrahydropteridin-2-yl)-N,N-dimethyl-1H-imidazole-4-carboxamide], for which the pIC50 is 5.00 to 6.00 on PLK1 (GST-PLK1); 5.00 to 6.00 on PLK2 (GST-PLK2); 4.30 to 5.00 on PLK3 (GST-PLK3, read-out: Plk3 IC50).
Regarding `CC[C@@H]1C(=O)N(C)c2cnc(-c3cn[nH]c3-c3nccs3)nc2N1c1ccc(F)c(F)c1` [Example 395, (R)-8-(3,4-difluorophenyl)-7-ethyl-5-methyl-2-(5-(thiazol-2-yl)-1H-pyrazol-4-yl)-7,8-dihydropteridin-6(5H)-one], the pIC50 against PLK1 (GST-PLK1) was above 6.00; on PLK2 (GST-PLK2) it was above 6.00; at PLK3 (GST-PLK3, read-out: Plk3 IC50), 5.00 to 6.00. Besides, the “relative PLK2 activity” value on PLK2 is reported as “more active compound”.
Take `CC[C@@H]1C(=O)N(C)c2cnc(-c3ccncc3NS(=O)(=O)c3ccccc3)nc2N1C(C)C` [Example 120, (R)—N-(4-(7-ethyl-8-isopropyl-5-methyl-6-oxo-5,6,7,8-tetrahydropteridin-2-yl)pyridin-3-yl)benzenesulfonamide]: the pIC50 was 5.00 to 6.00 at PLK1 (GST-PLK1, 60 min reaction); 5.00 to 6.00 on PLK2 (GST-PLK2, 60 min reaction); below 4.30 on PLK3 (setting [1]).
As to `CC[C@@H]1C(=O)N(C)c2cnc(-c3ccncc3NC(=O)c3ccccc3)nc2N1C(C)C` [Example 104, (R)—N-(4-(7-ethyl-8-isopropyl-5-methyl-6-oxo-5,6,7,8-tetrahydropteridin-2-yl)pyridin-3-yl)benzamide], the pIC50 at PLK1 (GST-PLK1, 60 min reaction) was 5.00 to 6.00; on PLK2 (GST-PLK2, 60 min reaction) it was above 6.00; at PLK3 (setting [1]), 5.00 to 6.00.
As for `CCC12CCCCN1c1nc(-n3ccnc3-c3ccc(F)c(F)c3)ncc1N(C)C2=O` (racemic) [Example 240, (+/−) 2-(2-(3,4-difluorophenyl)-1H-imidazol-1-yl)-6a-ethyl-5-methyl-7,8,9,10-tetrahydro-5H-pyrido[2,1-h]pteridin-6(6aH)-one], the pIC50 on PLK1 (GST-PLK1, 60 min reaction) is 5.00 to 6.00; at PLK2 (GST-PLK2, 60 min reaction) it was above 6.00; at PLK3 (setting [1]), 4.30 to 5.00.
As to `CC[C@@H]1C(=O)N(C)c2cnc(-n3ccnc3-c3ccc(F)cn3)nc2N1C1CCCC1` [Example 271, (R)-8-cyclopentyl-7-ethyl-2-(2-(5-fluoropyridin-2-yl)-1H-imidazol-1-yl)-5-methyl-7,8-dihydropteridin-6(5H)-one], the pIC50 is above 6.00 at PLK1 (GST-PLK1, 60 min reaction); above 6.00 at PLK2 (GST-PLK2, 60 min reaction); 5.00 to 6.00 on PLK3 (setting [1]).
For the compound `CC[C@@]12CCCN1c1nc(-c3cn[nH]c3-c3nccs3)ncc1N(C)C2=O` [Example 338, (S)-6a-ethyl-5-methyl-2-(5-(thiazol-2-yl)-1H-pyrazol-4-yl)-6a,7,8,9-tetrahydropyrrolo[2,1-h]pteridin-6(5H)-one], the pIC50 is below 4.30 against PLK1 (GST-PLK1, 60 min reaction); 4.30 to 5.00 at PLK2 (GST-PLK2, 60 min reaction); below 4.30 at PLK3 (setting [1]).
Consider `CC[C@@H]1C(=O)N(C)c2cnc(-c3cnc4[nH]ccc4c3)nc2N1C1CCCC1` [Example 32, (R)-8-cyclopentyl-7-ethyl-5-methyl-2-(1H-pyrrolo[2,3-b]pyridin-5-yl)-7,8-dihydropteridin-6(5H)-one], for which the pIC50 is above 6.00 at PLK1 (GST-PLK1, 60 min reaction); above 6.00 on PLK2 (GST-PLK2, 60 min reaction); 5.00 to 6.00 at PLK3 (setting [1]).
As to `CC[C@@H]1C(=O)N(C)c2cnc(-n3ccnc3C3=CCOCC3)nc2N1C1CCCC1` [Example 84, (R)-8-cyclopentyl-2-(2-(3,6-dihydro-2H-pyran-4-yl)-1H-imidazol-1-yl)-7-ethyl-5-methyl-7,8-dihydropteridin-6(5H)-one], the pIC50 at PLK1 (GST-PLK1, 60 min reaction) is 5.00 to 6.00; on PLK2 (GST-PLK2, 60 min reaction) it was above 6.00; on PLK3 (setting [1]), 4.30 to 5.00.
In the case of `CC[C@@H]1CC[C@@]2(CC)C(=O)N(C)c3cnc(-n4ccnc4C)nc3N12` [Example 325, (6aS,9R)-6a,9-diethyl-5-methyl-2-(2-methyl-1H-imidazol-1-yl)-6a,7,8,9-tetrahydropyrrolo[2,1-h]pteridin-6(5H)-one], the pIC50 against PLK1 (GST-PLK1, 60 min reaction) was 4.30 to 5.00; on PLK2 (GST-PLK2, 60 min reaction), 5.00 to 6.00; at PLK3 (setting [1]), 4.30 to 5.00.
For the compound `CC[C@@H]1C(=O)N(C)c2cnc(-c3ccncc3CNC(=O)OC)nc2N1C1CCCC1` [Example 121, (R)-methyl (4-(8-cyclopentyl-7-ethyl-5-methyl-6-oxo-5,6,7,8-tetrahydropteridin-2-yl)pyridin-3-yl)methylcarbamate], the pIC50 against PLK1 (GST-PLK1, 60 min reaction) was 4.30 to 5.00; on PLK2 (GST-PLK2, 60 min reaction), 5.00 to 6.00; at PLK3 (setting [1]), 4.30 to 5.00.
Consider `CC[C@@H]1C(=O)N(C)c2cnc(-n3ccnc3N3C(=O)CCC3=O)nc2N1C1CCC1` [Example 112, (R)-1-(1-(8-cyclobutyl-7-ethyl-5-methyl-6-oxo-5,6,7,8-tetrahydropteridin-2-yl)-1H-imidazol-2-yl)pyrrolidine-2,5-dione], for which the pIC50 against PLK1 (GST-PLK1, 60 min reaction) is 4.30 to 5.00; at PLK2 (GST-PLK2, 60 min reaction) it was 4.30 to 5.00; at PLK3 (setting [1]), below 4.30.
As to `CCC12CCCCN1c1nc(-n3ccnc3-c3cccc(F)c3)ncc1N(C)C2=O` (racemic) [Example 239, (+/−) 6a-ethyl-2-(2-(3-fluorophenyl)-1H-imidazol-1-yl)-5-methyl-7,8,9,10-tetrahydro-5H-pyrido[2,1-h]pteridin-6(6aH)-one], the pIC50 was 5.00 to 6.00 at PLK1 (GST-PLK1, 60 min reaction); above 6.00 on PLK2 (GST-PLK2, 60 min reaction); 4.30 to 5.00 at PLK3 (setting [1]).
In the case of `CN1C(=O)C2(CC(F)(F)F)CCCN2c2nc(-n3ccnc3-c3ccccc3)ncc21` (stereo not drawn) [Example 339, 5-methyl-2-(2-phenyl-1H-imidazol-1-yl)-6a-(2,2,2-trifluoroethyl)-6a,7,8,9-tetrahydropyrrolo[2,1-h]pteridin-6(5H)-one], the pIC50 is 4.30 to 5.00 on PLK1 (GST-PLK1, 60 min reaction); above 6.00 on PLK2 (GST-PLK2, 60 min reaction); 4.30 to 5.00 at PLK3 (setting [1]).
As for `CC[C@@H]1CC[C@@]2(CC)C(=O)N(C)c3cnc(-c4cn[nH]c4-c4nccs4)nc3N12` [Example 340, (6aS,9R)-6a,9-diethyl-5-methyl-2-(5-(thiazol-2-yl)-1H-pyrazol-4-yl)-6a,7,8,9-tetrahydropyrrolo[2,1-h]pteridin-6(5H)-one], the pIC50 was above 6.00 on PLK1 (GST-PLK1, 60 min reaction); above 6.00 on PLK2 (GST-PLK2, 60 min reaction); 5.00 to 6.00 on PLK3 (setting [1]).
Consider `CC[C@@H]1C(=O)N(C)c2cnc(N3CCN(C)CC3)nc2N1C1CCCC1` [Example 210, (R)-8-cyclopentyl-7-ethyl-5-methyl-2-(4-methylpiperazin-1-yl)-7,8-dihydropteridin-6(5H)-one], for which the pIC50 against PLK1 (GST-PLK1, 60 min reaction) was below 4.30; on PLK2 (GST-PLK2, 60 min reaction) it was below 4.30; on PLK3 (setting [1]), below 4.30.
